Results taken from patent US20150209327A1, “METHODS FOR THE TREATMENT OF OBESITY USING APREMILAST” (Celgene Corporation, priority 2014, published 2015).
Several values for one entry are separate records, joined by “and”; a condition that tells them apart may be missing. Equal values may be shown once.

Columns and labels:
[1] = system: Phosphodiesterase 4 enzyme; experiment: Inhibition of PDE4 (enzyme purified from U937 human monocytic cells); assay type: biochemical; details: 1 μM cAMP, 45 min at 30° C.
Experimental: Inhibition of PDE4: Phosphodiesterase 4 enzyme was purified from U937 human monocytic cells by gel filtration chromatography, and phosphodiesterase reactions were carried out as previously described. See Muller et al., Bioorg. Med. Chem. Lett., 1998, 8(19): 2669-2674. Briefly, reactions were carried out in 96-well deep-well plates in 50 mM Tris HCl pH 7.5, 5 mM MgCl2, 1 μM cyclic adenosine monophosphate (cAMP), plus 10 nM [3H]-cAMP for 45 min at 30° C. The reactions were terminated by boiling, treated with 1 mg/ml snake venom, and separated using AG-1X8 ion exchange resin (BioRad). Reactions consumed less than 15% of available substrate.

[2] = Psoriasis (PSOR) Phase 3 Data Pool: weight change; assay type: in vivo, human; details: 30 mg BID; for Weight % Change Category 0%, n (%) / Weight % Change Category <−20%, n (%) / Weight % Change Category >0% to ≦5%, n (%) / Weight % Change Category >5% to ≦10%, n (%) / Weight % Change Category >10% to ≦20%, n (%) / Weight % Change Category >20%, n (%) / Weight % Change Category ≧−5% to <0%, n (%) / Weight % Change Category ≧−10% to <−5%, n (%) / Weight % Change Category ≧−20% to <−10%, n (%): Subjects as Treated; for observed weight loss of greater than 10%, subjects n (%): subjects as treated
Excerpt: Apremilast has shown benefit of weight loss in both Phase 2 and Phase 3 Psoriatic Arthritis (PSA) and Psoriasis (PSOR) trials.

[3] = Apremilast Data Pool: weight change; assay type: in vivo, human; details: 20 mg BID
Excerpt: Similar results of weight loss were reported for the Apremilast Data Pool. A weight decrease was reported during the Placebo-controlled Period (24 weeks) in 3 (0.2%) subjects who received placebo and 26 (0.9%) subjects who received apremilast, including 8 (0.8%) subject in the APR 20 BID group, and 18 (1.1%) subjects in the APR 30 BID group.
The end-of-period value is the last postbaseline value (only through the Placebo-controlled Period for placebo-treated subjects) including data up to 28 days after the last dose of investigational product but excluding the observational follow-up visit.
The end-of-period value is the last postbaseline value (while subjects were receiving apremilast), including data up to 28 days after the last dose of apremilast but excluding the observational follow-up visit.

[4] = Apremilast-exposure Period, m = 1133
[5] = End of Period (APR, apremilast exposure), Subjects as Initially Treated at Week 0
[6] = End of Period (PBC), Subjects as Initially Treated at Week 0
[7] = End of Period (apremilast exposure), Apremilast Subjects as Treated
[8] = Week 52, Apremilast Subjects as Treated
[9] = Week 78, Apremilast Subjects as Treated
[10] = Apremilast-exposure Period, Apremilast Subjects as Treated, m = 1373
[11] = Placebo-controlled Period, Subjects as Initially Treated at Week 0, m = 900

## CCOc1cc([C@@H](CS(C)(=O)=O)N2C(=O)c3cccc(NC(C)=O)c3C2=O)ccc1OC [Apremilast, (+)-2-[1-(3-ethoxy-4-methoxyphenyl)-2-methylsulfonylethyl]-4-acetylaminoisoindoline-1,3-dione]
[1]
  IC50: 73.5 nM
[2]
  weight decrease reported, subjects n (%): 18 (1.5%) n (%)
[2]; [4]
  Weight % Change Category 0%, n (%): 72 (6.4) n (%)
  Weight % Change Category <−20%, n (%): 9 (0.8) n (%)
  Weight % Change Category >0% to ≦5%, n (%): 283 (25.0) n (%)
  Weight % Change Category >5% to ≦10%, n (%): 61 (5.4) n (%)
  Weight % Change Category >10% to ≦20%, n (%): 19 (1.7) n (%)
  Weight % Change Category >20%, n (%): 1 (0.1) n (%)
  Weight % Change Category ≧−5% to <0%, n (%): 470 (41.5) n (%)
  Weight % Change Category ≧−10% to <−5%, n (%): 162 (14.3) n (%)
  Weight % Change Category ≧−20% to <−10%, n (%): 56 (4.9) n (%)
[2]; Apremilast-exposure Period
  observed weight loss of greater than 10%, subjects n (%): 65(5.7%) n (%)
[2]; [5]
  Change From Baseline (kg) Median (Min, Max): −1.00 (−39.4, 22.3) kg
  Weight, kg End of Period Mean ± SD: 91.05 ± 21.694 kg
[2]; End of Period (APR, apremilast exposure), Subjects as Initially Treated at Week 0, listed as APR
  Change From Baseline (kg) Mean ± SD: -1.67 kg and -1.67 ± 5.437 kg
[2]; [6]
  Change From Baseline (kg) Median (Min, Max): −1.00 (−34.9, 28.0) kg
  Weight, kg End of Period Mean ± SD: 91.35 ± 21.673 kg
[2]; End of Period (PBC), Subjects as Initially Treated at Week 0, listed as APR
  Change From Baseline (kg) Mean ± SD: -1.45 kg and -1.45 ± 3.891 kg
[2]; [7]
  Change From Baseline (kg) Mean ± SD: -1.76 ± 5.344 kg
  Change From Baseline (kg) Median (Min, Max): −1.10 (−39.4, 22.3) kg
  Weight, kg Time Point Mean ± SD: 90.72 ± 21.669 kg
[2]; [8]
  Change From Baseline (kg) Median (Min, Max): −1.40 (−39.0, 15.6) kg
  Weight, kg Time Point Mean ± SD: 90.98 ± 22.291 kg
[2]; Week 52, Apremilast Subjects as Treated, listed as APR
  Change From Baseline (kg) Mean ± SD: -1.99 kg and -1.99 ± 5.640 kg
[2]; [9]
  Change From Baseline (kg) Median (Min, Max): −2.30 (−28.0, 14.9) kg
  Weight, kg Time Point Mean ± SD: 89.72 ± 22.231 kg
[2]; Week 78, Apremilast Subjects as Treated, listed as APR
  Change From Baseline (kg) Mean ± SD: -2.72 kg and -2.72 ± 5.792 kg
[2]; Weeks 0-16
  percentage of subjects with weight change of >−10% to <−5%: 11.7%
[2]; Weeks 0-16, m = 1127
  Weight % Change Category 0%, n (%): 108 (9.6) n (%)
  Weight % Change Category <−20%, n (%): 2 (0.2) n (%)
  Weight % Change Category >0% to ≦5%, n (%): 277 (24.6) n (%)
  Weight % Change Category >5% to ≦10%, n (%): 24 (2.1) n (%)
  Weight % Change Category >10% to ≦20%, n (%): 6 (0.5) n (%)
  Weight % Change Category >20%, n (%): 1 (0.1) n (%)
  Weight % Change Category ≧−5% to <0%, n (%): 557 (49.4) n (%)
  Weight % Change Category ≧−10% to <−5%, n (%): 132 (11.7) n (%)
  Weight % Change Category ≧−20% to <−10%, n (%): 20 (1.8) n (%)
[2]; Weeks 0 to 16
  observed weight loss of greater than 10%, subjects n (%): 22 (2.0%) n (%)
[2]; regardless of duration of exposure
  body weight of the majority of subjects: maintained their body weight within 0% and 5% of baseline
[3]; Apremilast-exposure Period
  observed weight loss of greater than 10%, % subjects: 4.0%
  weight decrease reported, subjects n (%): 17 (1.2%) n (%)
[3]; [10]
  Weight % Change Category 0%, n (%): 125 (9.1) n (%)
  Weight % Change Category <−20%, n (%): 2 (0.1) n (%)
  Weight % Change Category >0% to ≦5%, n (%): 410 (29.9) n (%)
  Weight % Change Category >5% to ≦10%, n (%): 56 (4.1) n (%)
  Weight % Change Category >10% to ≦20%, n (%): 18 (1.3) n (%)
  Weight % Change Category >20%, n (%): 0 n (%)
  Weight % Change Category ≧−5% to <0%, n (%): 565 (41.2) n (%)
  Weight % Change Category ≧−10% to <−5%, n (%): 144 (10.5) n (%)
  Weight % Change Category ≧−20% to <−10%, n (%): 53 (3.9) n (%)
[3]; Placebo-controlled Period
  observed weight loss of greater than 10%, subjects n (%): 17 (1.9%) n (%)
  percentage of subjects with weight change of >−10% to <−5%: 9.3%
[3]; Placebo-controlled Period (24 weeks)
  weight decrease reported, subjects n (%): 8 (0.8%) n (%)
[3]; [11]
  Weight % Change Category 0%, n (%): 101 (11.2) n (%)
  Weight % Change Category <−20%, n (%): 1 (0.1) n (%)
  Weight % Change Category >0% to ≦5%, n (%): 277 (30.8) n (%)
